The experiment addresses SARS-CoV 3CL protease (Severe acute respiratory syndrome coronavirus, UniProt P0C6X7). Description: biochemical. To be noted: IC50 (inhibition of SARS-CoV 3CL protease).

For the compound `C[C@H](NC(=O)CC[C@H](NC(=O)OC(C)(C)C)C(=O)OC(C)(C)C)C(=O)NCC(=O)C(F)(F)F` [Compound 5d, 3-{N-[N-tert-Butoxycarbonyl-L-γGlu(OtBu)-L-Ala]}-1,1,1-trifluoropropan-2-one], the IC50 came to 40 µM.

Turning to `CCCCCCCCC(=O)N[C@@H](CC(C)C)C(=O)NC(Cc1ccccc1)C(=O)C(F)(F)F` (mixture of isomers) [Compound 5g, 3-{N-[N-CH3(CH2)7(C?O)-L-Leu]}-4-phenyl-1,1,1-trifluorobutan-2-one], the IC50 was > 50 µM.

A word on the IC50: it is the concentration at which inhibition is half-maximal. A lower IC50 goes with greater potency.

Values taken from publication PMC7127754 (Bioorganic & Medicinal Chemistry, 2008).
